# According to the supplement of paper PMC10307832:
# Experiments:
# Experiment in all cases: relative viability (nuclei count vs DMSO), 5 days (fraction); higher = more cells survive
# 4EGI-1 + Bortezomib = compound: O=C(O)C(Cc1ccccc1[N+](=O)[O-])=NNc1nc(-c2ccc(Cl)c(Cl)c2)cs1 (mixture of isomers) [4EGI-1] + CC(C)C[C@H](NC(=O)[C@H](Cc1ccccc1)NC(=O)c1cnccn1)B(O)O [Bortezomib] (partner 0.002 µM)
# Outline: (§1)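 The day after seeding in 1536-well plates, lung cancer cell lines were treated by pin tool with a single drug, or with a fixed anchor-drug dose together with five library-drug doses (not always all listed) in √10 steps. After 5 days, a combined fix-and-stain solution (final 0.05% Triton X-100, 1% formaldehyde, 1 ug/ml Hoechst) was added. Nuclei counted on 4× images gave relative viability as treated counts over vehicle counts, reported as the median of duplicate plates.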
# XMD8-85 + Alpelisib = compound: CN1CCN(CC1)C2=CC(=C(C=C2)NC3=NC=C4C(=N3)N(C5=CC=CC=C5C(=O)N4C)C)OC [XMD8-85] + Cc1nc(NC(=O)N2CCC[C@H]2C(N)=O)sc1-c1ccnc(C(C)(C)C(F)(F)F)c1 [Alpelisib] (partner 2 µM)
# Outline: as §1
# XMD8-85 = compound: CN1CCN(CC1)C2=CC(=C(C=C2)NC3=NC=C4C(=N3)N(C5=CC=CC=C5C(=O)N4C)C)OC [XMD8-85]
# Outline: (§2)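 Viability here means nuclei in treated wells divided by nuclei in vehicle wells, reported as the median across plates. Only plates with control CV below 25% and at least one doubling passed. Lung cancer cell lines in 1536-well plates were exposed to five √10-spaced library-drug doses for 5 days and counted from 4× Hoechst images in MetaXpress.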
# 4EGI-1 = compound: O=C(O)C(Cc1ccccc1[N+](=O)[O-])=NNc1nc(-c2ccc(Cl)c(Cl)c2)cs1 (mixture of isomers) [4EGI-1]
# Outline: as §2
Cell Line,relative viability (4EGI-1 + Bortezomib; first compound 0.5 µM),relative viability (4EGI-1 + Bortezomib; first compound 1.581 µM),relative viability (4EGI-1 + Bortezomib; first compound 5 µM),relative viability (4EGI-1 + Bortezomib; first compound 15.81 µM),relative viability (4EGI-1 + Bortezomib; first compound 50 µM),relative viability (XMD8-85 + Alpelisib; first compound 0.08 µM),relative viability (XMD8-85 + Alpelisib; first compound 0.8 µM),relative viability (XMD8-85 + Alpelisib; first compound 2.53 µM),relative viability (XMD8-85 + Alpelisib; first compound 8 µM),relative viability (XMD8-85; 0.08 µM),relative viability (XMD8-85; 0.253 µM),relative viability (XMD8-85; 0.8 µM),relative viability (XMD8-85; 2.53 µM),relative viability (XMD8-85; 8 µM),relative viability (4EGI-1; 0.5 µM),relative viability (4EGI-1; 1.581 µM),relative viability (4EGI-1; 5 µM),relative viability (4EGI-1; 15.81 µM),relative viability (4EGI-1; 50 µM),relative viability (XMD8-85 + Alpelisib; first compound 0.253 µM)
NCI-H1993,1.19,0.899,0.988,0.689,0.516,0.707,0.78,0.561,0.656,0.861,0.965,1.01,1.12,0.89,1,0.847,0.908,0.616,0.573,–
NCI-H2009,1.2,0.954,1.19,0.944,0.186,1.17,1.14,1.03,0.586,0.967,0.987,1,0.97,0.605,1.05,1.02,1.07,1.02,0.24,1.03
NCI-H2023,1.53,–,1.23,0.309,0.101,0.488,0.66,0.664,0.334,0.837,1.02,0.99,1,0.559,1.27,–,1.1,0.376,0.129,0.623
NCI-H2085,1.14,1.04,1.16,0.964,0.517,0.966,1.01,0.852,0.728,0.945,0.966,0.995,0.935,0.856,1.06,1.01,1.03,0.799,0.663,0.917
NCI-H2087,1.04,0.782,0.882,0.726,0.335,1.18,1.21,1.35,0.808,1.07,0.984,1.09,1.05,0.811,1.24,1.05,0.975,0.694,0.256,1.05
NCI-H2126,1.13,1.04,1.07,1,1.11,0.628,0.814,0.776,0.724,0.96,1.02,1.03,1.11,0.821,1.05,0.937,1.05,0.837,0.79,0.767
NCI-H2228,1.25,0.952,1.05,0.599,0.252,–,0.78,0.891,0.488,0.894,1.06,1,0.995,0.604,1.26,1.25,0.939,0.951,0.294,0.724
NCI-H2347,1.06,0.835,0.992,1.08,0.886,1.03,1.03,1,0.801,1.03,0.973,1.04,1.03,0.809,1.14,0.965,1.02,1.03,0.823,1.06
